Where two headings read alike, the source gives them in different places.
What was measured:
[1] = rats and mice; Akwa et al. 2001; cited from earlier work
B104 cells [2] = assay: Necrotic effect of fibrillary form of human Aβ1-42 peptide on B104 cells; format: cell-based, Rat
Procedure: (§1) Rat B104 neuroblastoma is chosen as the cell culture model due to its neuronal phenotype when grown in serum free medium (Schubert et al. Nature 1974; 249: 224-27). B104 cells are routinely grown in flasks of 75 cm^2 with complete culture medium containing Dulbecco's Modified Eagle Medium (DMEM) supplemented with 2 mM L-glutamine, penicillin G (50 U/ml), streptomycin sulfate (50 μg/ml), 10% fetal calf serum, and 5% horse serum. They are sub-cultured every week and the culture medium is changed every three days. Cultures are maintained at 37° C. in a humidified incubator in 90% air and 10% CO2 atmosphere. For the experiments, the cells are plated at the required density, in serum complete medium for 24 H and then the medium is replaced with a serum free one containing or not the desired treatment.
(§2) Aβ1-42 is obtained from Bachem and prepared in fibril form known to mediate neurotoxicity (Lorenzo et al. Proc Natl Acad Sci USA 1994; 91:12243-47). Aβ1-42 fibrils are produced by dissolving the peptide in double distilled water (ddH2O) to 10 µg/μl, followed by incubation under agitation (300-400 rpm) for one week at 37° C.
Flow cytometry is utilized to look for the percentage of apoptosis or necrosis that reflects the neurotoxic effect of Aβ1-42 as well as the neuroprotective effect of neurosteroids by staining cells with annexin V that has affinity to phosphatidyl serine (PS) (Van Genderen et al. 2006). In normal viable cells, PS is located on the cytoplasmic side of the cell membrane. However, in apoptotic cells, PS is translocated from the inner to the outer leaflets of the plasma membrane where annexin V could bind to PS. Moreover, annexin V can pass through the compromised membrane of necrotic cells and bind to PS in the anterior of the cell (Van Genderen et al. Nat Protoc 2006; 1:363-67).
Cells are seeded in 6 well plates at the required density and grown for 24H. They are then treated according to two procedures: either with specific steroids and then Aβ1-42 or with Aβ1-42 followed by steroids. A kinetic study is performed at 6, 12 or 24 H depending on the concentration of the peptide.
For flow cytometry analysis, cells are washed with PBS and harvested by trypsinization. After centrifugation and resuspension in annexin binding buffer and incubation for 15 min with 5-25 μl of annexin V conjugate, cells are washed with annexin binding buffer and examined by flow cytometry. Data is examined by using appropriate software, and scattergrams are analyzed.

B104 cells [3] = assay: Neurotrophic activity: neuronal outgrowth in B104 cells cultured at low density; format: cell-based, Rat; settings: 5 μM PREGS during 7 days, compared to control cells
Procedure: as §1
For this purpose, […] acid (95:5), washed and incubated for 30 min in PBS containing 2% bovine serum albumin (BSA) to block non specific binding. Immunostaining of B104 cells is performed for 2 H at room temperature (RT) with appropriate dilutions of primary antibodies. Then, cells are rinsed and incubated with sheep anti-mouse IgG antibodies (Sigma) in PBS/BSA, for 2 H at RT. After being washed, the immunostained cells are examined under microscope (a Leica or Zeiss Axiovert 135M microequipped with an epifluorescence system or optical microscope Nikon Labophot 2).

B104 cells [4] = assay: Neuroprotection by PREGS against fibrillary human Aβ1-42 peptide toxicity on B104 cells; format: cell-based, Rat; design: protection against Aβ1-42 peptide-induced toxicity: dose or concentration left out as unconfirmed
Procedure: as §1
as §2, with “C. […]” for “C.”
For flow cytometry analysis, cells are washed with PBS and harvested by trypsinization. […] Data is examined by using appropriate software, and scattergrams are analyzed.

For `CC(=O)[C@@H]1CC[C@@H]2[C@H]3CC=C4C[C@H](OS(=O)(=O)O)CC[C@@]4(C)[C@@H]3CC[C@]21C` [ent-PREGS], the “potency in stimulating memory relative to natural PREGS” value [1] is listed as “more potent”.

In the case of “Aβ1-42: fibrillary form of human β-amyloid peptide Aβ1-42, obtained from Bachem”, the “necrosis, dose dependence” value (B104 cells [2]) is reported as “significant dose-dependent necrosis”, the necrotic effect (B104 cells [2]; B104 cells, 10 μM human Aβ1-42 peptide, 6 h, compared to control cells) is reported as “considerable necrotic effect” and the “time after treatment at which necrotic effect was demonstrated” value (B104 cells [2]; B104 cells, fAβ1-42) is reported as ≤ 6 H. The “necrosis, dose dependence” value (B104 cells [2]; B104 cells, increasing from 5 μM to 20 μM of fAβ1-42 peptide) was “significant dose-dependent necrosis”.

In the case of pregnenolone sulfate [PREGS], the neuronal cell outgrowth (B104 cells [3]) is reported as “Striking neuronal cell outgrowth”, the “protection against fAβ1-42 peptide-induced toxicity” value (B104 cells [4]; PREGS at 20 μM, 20 μM fAβ1-42 peptide, observed at 24H, maintained until 96H) is reported as “able to protect” and the “protection against Aβ1-42 peptide-induced toxicity” value (B104 cells [4]; observed at 24 h, maintained until 96 h) is reported as “able to protect”.

Reference: patent publication US20120122830A1 (King Faisal Specialist Hospital & Research Centre, priority 2008, published 2012)
